Measurements published in BigSolDB 2.1.

O=C1C=CC(=O)N1c1ccccc1Br
solubility (mole fraction) (in DMF, 278.15 K): 0.141 | solubility (mole fraction) (in DMF, 283.15 K): 0.163 | solubility (mole fraction) (in DMF, 288.15 K): 0.189 | solubility (mole fraction) (in DMF, 293.15 K): 0.219 | solubility (mole fraction) (in DMF, 298.15 K): 0.253 | solubility (mole fraction) (in DMF, 303.15 K): 0.284 | solubility (mole fraction) (in DMF, 308.15 K): 0.318 | solubility (mole fraction) (in DMF, 313.15 K): 0.363 | solubility (mole fraction) (in DMF, 318.15 K): 0.411 | solubility (mole fraction) (in DMF, 323.15 K): 0.473 | solubility (mole fraction) (in DMSO, 293.15 K): 0.156 | solubility (mole fraction) (in DMSO, 298.15 K): 0.177 | solubility (mole fraction) (in DMSO, 303.15 K): 0.21 | solubility (mole fraction) (in DMSO, 308.15 K): 0.238 | solubility (mole fraction) (in DMSO, 313.15 K): 0.288 | solubility (mole fraction) (in DMSO, 318.15 K): 0.327 | solubility (mole fraction) (in DMSO, 323.15 K): 0.387 | solubility (mole fraction) (in NMP, 278.15 K): 0.117 | solubility (mole fraction) (in NMP, 283.15 K): 0.131 | solubility (mole fraction) (in NMP, 288.15 K): 0.154 | solubility (mole fraction) (in NMP, 293.15 K): 0.179 | solubility (mole fraction) (in NMP, 298.15 K): 0.212 | solubility (mole fraction) (in NMP, 303.15 K): 0.245 | solubility (mole fraction) (in NMP, 308.15 K): 0.284 | solubility (mole fraction) (in NMP, 313.15 K): 0.324 | solubility (mole fraction) (in NMP, 318.15 K): 0.372 | solubility (mole fraction) (in NMP, 323.15 K): 0.424 | solubility (mole fraction) (in acetone, 278.15 K): 0.0947 | solubility (mole fraction) (in acetone, 283.15 K): 0.108 | solubility (mole fraction) (in acetone, 288.15 K): 0.125 | solubility (mole fraction) (in acetone, 293.15 K): 0.144 | solubility (mole fraction) (in acetone, 298.15 K): 0.164 | solubility (mole fraction) (in acetone, 303.15 K): 0.19 | solubility (mole fraction) (in acetone, 308.15 K): 0.223 | solubility (mole fraction) (in acetone, 313.15 K): 0.263 | solubility (mole fraction) (in acetone, 318.15 K): 0.306 | solubility (mole fraction) (in acetone, 323.15 K): 0.356 | solubility (mole fraction) (in acetonitrile, 278.15 K): 0.0291 | solubility (mole fraction) (in acetonitrile, 283.15 K): 0.0347 | solubility (mole fraction) (in acetonitrile, 288.15 K): 0.0422 | solubility (mole fraction) (in acetonitrile, 293.15 K): 0.0521 | solubility (mole fraction) (in acetonitrile, 298.15 K): 0.0621 | solubility (mole fraction) (in acetonitrile, 303.15 K): 0.0723 | solubility (mole fraction) (in acetonitrile, 308.15 K): 0.0857 | solubility (mole fraction) (in acetonitrile, 313.15 K): 0.103 | solubility (mole fraction) (in acetonitrile, 318.15 K): 0.121 | solubility (mole fraction) (in acetonitrile, 323.15 K): 0.139 | solubility (mole fraction) (in cyclohexane, 278.15 K): 0.00188 | solubility (mole fraction) (in cyclohexane, 283.15 K): 0.00224 | solubility (mole fraction) (in cyclohexane, 288.15 K): 0.00275 | solubility (mole fraction) (in cyclohexane, 293.15 K): 0.00344 | solubility (mole fraction) (in cyclohexane, 298.15 K): 0.00403 | solubility (mole fraction) (in cyclohexane, 303.15 K): 0.00487 | solubility (mole fraction) (in cyclohexane, 308.15 K): 0.00597 | solubility (mole fraction) (in cyclohexane, 313.15 K): 0.00744 | solubility (mole fraction) (in cyclohexane, 318.15 K): 0.00927 | solubility (mole fraction) (in cyclohexane, 323.15 K): 0.0117 | solubility (mole fraction) (in ethanol, 278.15 K): 0.0113 | solubility (mole fraction) (in ethanol, 283.15 K): 0.0134 | solubility (mole fraction) (in ethanol, 288.15 K): 0.0163 | solubility (mole fraction) (in ethanol, 293.15 K): 0.0204 | solubility (mole fraction) (in ethanol, 298.15 K): 0.0245 | solubility (mole fraction) (in ethanol, 303.15 K): 0.0287 | solubility (mole fraction) (in ethanol, 308.15 K): 0.0341 | solubility (mole fraction) (in ethanol, 313.15 K): 0.0411 | solubility (mole fraction) (in ethanol, 318.15 K): 0.0481 | solubility (mole fraction) (in ethanol, 323.15 K): 0.0556 | solubility (mole fraction) (in ethylene glycol, 278.15 K): 0.00377 | solubility (mole fraction) (in ethylene glycol, 283.15 K): 0.00451 | solubility (mole fraction) (in ethylene glycol, 288.15 K): 0.0055 | solubility (mole fraction) (in ethylene glycol, 293.15 K): 0.00661 | solubility (mole fraction) (in ethylene glycol, 298.15 K): 0.00819 | solubility (mole fraction) (in ethylene glycol, 303.15 K): 0.00983 | solubility (mole fraction) (in ethylene glycol, 308.15 K): 0.0115 | solubility (mole fraction) (in ethylene glycol, 313.15 K): 0.0134 | solubility (mole fraction) (in ethylene glycol, 318.15 K): 0.016 | solubility (mole fraction) (in ethylene glycol, 323.15 K): 0.0184 | solubility (mole fraction) (in isobutanol, 278.15 K): 0.00649 | solubility (mole fraction) (in isobutanol, 283.15 K): 0.00819 | solubility (mole fraction) (in isobutanol, 288.15 K): 0.00989 | solubility (mole fraction) (in isobutanol, 293.15 K): 0.0117 | solubility (mole fraction) (in isobutanol, 298.15 K): 0.0141 | solubility (mole fraction) (in isobutanol, 303.15 K): 0.0173 | solubility (mole fraction) (in isobutanol, 308.15 K): 0.0204 | solubility (mole fraction) (in isobutanol, 313.15 K): 0.0234 | solubility (mole fraction) (in isobutanol, 318.15 K): 0.0276 | solubility (mole fraction) (in isobutanol, 323.15 K): 0.0328 | solubility (mole fraction) (in isopropanol, 278.15 K): 0.00861 | solubility (mole fraction) (in isopropanol, 283.15 K): 0.0104 | solubility (mole fraction) (in isopropanol, 288.15 K): 0.0126 | solubility (mole fraction) (in isopropanol, 293.15 K): 0.0157 | solubility (mole fraction) (in isopropanol, 298.15 K): 0.019 | solubility (mole fraction) (in isopropanol, 303.15 K): 0.0221 | solubility (mole fraction) (in isopropanol, 308.15 K): 0.0261 | solubility (mole fraction) (in isopropanol, 313.15 K): 0.0317 | solubility (mole fraction) (in isopropanol, 318.15 K): 0.0375 | solubility (mole fraction) (in isopropanol, 323.15 K): 0.0429 | solubility (mole fraction) (in methanol, 278.15 K): 0.0134 | solubility (mole fraction) (in methanol, 283.15 K): 0.0162 | solubility (mole fraction) (in methanol, 288.15 K): 0.0199 | solubility (mole fraction) (in methanol, 293.15 K): 0.0249 | solubility (mole fraction) (in methanol, 298.15 K): 0.03 | solubility (mole fraction) (in methanol, 303.15 K): 0.0356 | solubility (mole fraction) (in methanol, 308.15 K): 0.0421 | solubility (mole fraction) (in methanol, 313.15 K): 0.0514 | solubility (mole fraction) (in methanol, 318.15 K): 0.0604 | solubility (mole fraction) (in methanol, 323.15 K): 0.0702 | solubility (mole fraction) (in n-butanol, 278.15 K): 0.00586 | solubility (mole fraction) (in n-butanol, 283.15 K): 0.00717 | solubility (mole fraction) (in n-butanol, 288.15 K): 0.00848 | solubility (mole fraction) (in n-butanol, 293.15 K): 0.0106 | solubility (mole fraction) (in n-butanol, 298.15 K): 0.0127 | solubility (mole fraction) (in n-butanol, 303.15 K): 0.0147 | solubility (mole fraction) (in n-butanol, 308.15 K): 0.0172 | solubility (mole fraction) (in n-butanol, 313.15 K): 0.021 | solubility (mole fraction) (in n-butanol, 318.15 K): 0.0247 | solubility (mole fraction) (in n-butanol, 323.15 K): 0.0284 | solubility (mole fraction) (in n-propanol, 278.15 K): 0.00717 | solubility (mole fraction) (in n-propanol, 283.15 K): 0.00866 | solubility (mole fraction) (in n-propanol, 288.15 K): 0.0106 | solubility (mole fraction) (in n-propanol, 293.15 K): 0.0132 | solubility (mole fraction) (in n-propanol, 298.15 K): 0.016 | solubility (mole fraction) (in n-propanol, 303.15 K): 0.0187 | solubility (mole fraction) (in n-propanol, 308.15 K): 0.0225 | solubility (mole fraction) (in n-propanol, 313.15 K): 0.0271 | solubility (mole fraction) (in n-propanol, 318.15 K): 0.0323 | solubility (mole fraction) (in n-propanol, 323.15 K): 0.0372 | solubility (mole fraction) (in water, 278.15 K): 0.000175 | solubility (mole fraction) (in water, 283.15 K): 0.000217 | solubility (mole fraction) (in water, 288.15 K): 0.000277 | solubility (mole fraction) (in water, 293.15 K): 0.000348 | solubility (mole fraction) (in water, 298.15 K): 0.000443 | solubility (mole fraction) (in water, 303.15 K): 0.000543 | solubility (mole fraction) (in water, 308.15 K): 0.000684 | solubility (mole fraction) (in water, 313.15 K): 0.000812 | solubility (mole fraction) (in water, 318.15 K): 0.000979 | solubility (mole fraction) (in water, 323.15 K): 0.00119
